Results reported in patent US6794385B2, “Benzoxazine derivatives useful as integrin receptor antagonists” (Pharmacia & Upjohn, S.p.A., priority 2001, dated 2004).

Key:
[1] = target: T1, human αvβ3 integrin (Homo sapiens, UniProt P05106+P06756); test: αvβ3-vitronectin binding assay (solid phase); conditions: for IC50: inhibition of biotinylated vitronectin (5 nM) binding to coated αvβ3, read-out: αvβ3 (IC50 μmol); for ratio between αIIbβ3 and αvβ3 inhibiting activity: selectivity, αIIbβ3 IC50 over αvβ3 IC50
T1 construct: was purified from human placenta; from tissue; host or cells: human placenta
Procedure: A solid phase assay for the study of αvβ3-vitronectin binding was set up on the basis of already published methods (Wong et al., Molecular Pharmacology 50: 529-537, 1996; Brooks et al., Cell 85: 683-693, 1996). The human αvβ3 integrin was diluted into coating buffer (CB) containing 150 mM NaCl, 1 mM CaCl2, 1 mM MgCl2, 1 mM MnCl2, 20 mM TRIS, pH 7.4 at a concentration of 1.5 μg/ml. Into 96-well plates, 50 μl of the diluted integrin were added and allowed to bind to the plate walls overnight at 4° C. Next day, the assay plates were emptied and 100 μl of blocking buffer (CB buffer with 3% BSA) were added to each well for 45 min at 37° C. After the incubation, the plates were washed three times with 100 μl assay buffer (AB, CB buffer with 0.1% BSA). Serial 1:1 dilution (25 μl/well) of the test compounds were added to the plates, starting from 10 mM solutions in 100% DMSO diluted to 100 µM in AB. The binding reaction was started by addition (25 μl/well) of 10 nM biotinylated vitronectin (final concentration: 5 nM), and lasted 30 min at 37° C. The concentration range of the tested compounds spanned from 50 to 0.0005 μM. At the end of the co-incubation, the assay plates were washed as before and 70 μl of a 1:1000 AB dilution of peroxydase-conjugated streptavidin were added per well and were allowed to react for 45 min at 37° C. Then, the plates were washed as described and 50 μl of ready to use Turbo-TMB substrate for peroxydase were added to each well. After 30 minutes incubation at room temperature, the colour development was stopped with 50 μl sulphuric acid 0.38 M and the plates were read at a wavelength of 450 nm with a Packard plate reader. The values obtained were analyzed by four parameters curve fit in the computer program GraphPad Prism, after normalization by a maximum binding control (Bmax) detected in wells where no competitor was added, and a minimum binding control (NSB) detected in wells where no integrin was coated. Under standard assay conditions, A450 was never under 1.0 for Bmax, and around 0.15 for NSB.
Human vitronectin receptor ([…]v[…]3) was purified from human placenta (Pytela et al., Methods in Enzymology, 144: 475-489, 1987). Turbo-TMB was from PIERCE (34022). BSA (A4503), Vitronectin (V8379), RGD peptide (G4144) and all generic reagents were from SIGMA. Vitronectin was biotinylated according to the procedure indicated in the NHS biotinylation kit from PIERCE (21420). Horseradish peroxydase-streptavidin was from Amersham (RPN1231). 96-well plates were from Costar (#3690, EIA/RIA plate, ½ area flat bottom, high binding).

[2] = target: T2, αIIbβ3 integrin (human fibrinogen receptor) (Homo sapiens, UniProt P05106+P08514); test: αIIbβ3-fibrinogen binding assay (solid phase); conditions: inhibition of biotinylated fibrinogen (10 nM) binding to coated αIIbβ3; read-out: αIIbβ3 (IC50 μmol)
T2 construct: was purified from human platelets; from tissue; host or cells: human platelets
Procedure: A solid phase assay for the study of αIIbβ3-fibrinogen binding was set up on according to the method described for αvβ3. αIIbβ3 integrin was diluted into coating buffer (CB) containing 150 mM NaCl, 1 mM CaCl2, 1 mM MgCl2, 1 mM MnCl2, 20 mM TRIS, pH 7.4 at a concentration of 3 μg/ml. Into 96-well plates, 50 μl of the diluted integrin were added and allowed to bind to the plate walls overnight at 4° C. Next day, the assay plates were emptied and 100 μl of blocking buffer (CB buffer with 3% BSA) were added to each well for 45 min at 37° C. […] Then, the plates were washed as described and 50 μl of ready to use Turbo-TMB substrate for peroxydase were added to each well. After 30 minutes incubation at room temperature, the colour development was stopped with 50 μl sulphuric acid 0.38 M and the plates were read at a wavelength of 450 nm with a Packard plate reader. The values obtained were analysed by four parameters curve fit with the computer program GraphPad Prism, after normalization by a maximum binding control (Bmax) detected in wells where no competitor was added, and a minimum binding control (NSB) detected in wells where no integrin was coated. […]

T1 sequence (P06756 31-889 limits assumed): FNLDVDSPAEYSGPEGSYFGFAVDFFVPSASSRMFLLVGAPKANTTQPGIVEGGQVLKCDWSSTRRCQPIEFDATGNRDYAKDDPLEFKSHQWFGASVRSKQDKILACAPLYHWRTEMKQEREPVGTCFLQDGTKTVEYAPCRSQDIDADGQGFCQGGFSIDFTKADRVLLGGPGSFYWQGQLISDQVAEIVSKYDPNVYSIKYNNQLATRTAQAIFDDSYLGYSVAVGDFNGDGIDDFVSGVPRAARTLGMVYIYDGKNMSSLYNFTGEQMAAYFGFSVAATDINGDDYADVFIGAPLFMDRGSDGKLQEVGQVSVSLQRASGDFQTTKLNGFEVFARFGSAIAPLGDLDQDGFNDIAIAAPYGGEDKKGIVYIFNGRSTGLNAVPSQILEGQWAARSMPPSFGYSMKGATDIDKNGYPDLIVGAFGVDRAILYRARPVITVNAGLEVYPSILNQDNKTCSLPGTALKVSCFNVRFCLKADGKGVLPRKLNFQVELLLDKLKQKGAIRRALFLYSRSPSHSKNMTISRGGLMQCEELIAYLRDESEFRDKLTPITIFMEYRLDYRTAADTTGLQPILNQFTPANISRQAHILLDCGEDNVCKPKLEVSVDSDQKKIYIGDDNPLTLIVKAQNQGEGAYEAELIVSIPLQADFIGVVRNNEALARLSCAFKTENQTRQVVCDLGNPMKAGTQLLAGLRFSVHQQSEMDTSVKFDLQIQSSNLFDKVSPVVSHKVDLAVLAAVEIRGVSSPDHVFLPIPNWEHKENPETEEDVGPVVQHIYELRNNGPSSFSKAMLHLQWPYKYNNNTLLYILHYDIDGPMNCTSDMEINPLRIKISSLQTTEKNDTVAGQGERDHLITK
T1 sequence (P06756 891-1048 partner limits assumed): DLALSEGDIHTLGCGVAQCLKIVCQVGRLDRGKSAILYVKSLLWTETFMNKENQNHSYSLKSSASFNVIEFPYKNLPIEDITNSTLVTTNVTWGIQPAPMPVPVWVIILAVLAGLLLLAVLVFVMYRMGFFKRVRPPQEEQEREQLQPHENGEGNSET
T1 sequence (P05106 27-788): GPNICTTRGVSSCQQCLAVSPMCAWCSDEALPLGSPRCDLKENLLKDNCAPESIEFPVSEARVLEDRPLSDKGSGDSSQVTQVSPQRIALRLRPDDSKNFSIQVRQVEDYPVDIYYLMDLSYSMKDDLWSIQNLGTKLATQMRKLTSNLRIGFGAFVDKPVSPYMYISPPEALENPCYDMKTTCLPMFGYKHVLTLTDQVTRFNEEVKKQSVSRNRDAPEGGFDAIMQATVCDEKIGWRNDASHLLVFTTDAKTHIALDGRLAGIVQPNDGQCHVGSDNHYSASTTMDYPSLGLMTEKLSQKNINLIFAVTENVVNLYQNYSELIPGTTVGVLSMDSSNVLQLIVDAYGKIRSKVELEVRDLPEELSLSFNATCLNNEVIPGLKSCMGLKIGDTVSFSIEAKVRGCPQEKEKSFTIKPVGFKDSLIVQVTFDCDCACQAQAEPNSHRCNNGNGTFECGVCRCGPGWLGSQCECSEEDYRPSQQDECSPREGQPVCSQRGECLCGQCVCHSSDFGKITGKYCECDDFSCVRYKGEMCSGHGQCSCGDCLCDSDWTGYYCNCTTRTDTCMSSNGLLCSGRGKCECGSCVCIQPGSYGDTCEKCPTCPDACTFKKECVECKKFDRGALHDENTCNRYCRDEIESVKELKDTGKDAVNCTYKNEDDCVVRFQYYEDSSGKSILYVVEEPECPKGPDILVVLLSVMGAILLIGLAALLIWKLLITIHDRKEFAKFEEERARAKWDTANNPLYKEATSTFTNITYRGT
T2 sequence (P08514 32-887 limits assumed): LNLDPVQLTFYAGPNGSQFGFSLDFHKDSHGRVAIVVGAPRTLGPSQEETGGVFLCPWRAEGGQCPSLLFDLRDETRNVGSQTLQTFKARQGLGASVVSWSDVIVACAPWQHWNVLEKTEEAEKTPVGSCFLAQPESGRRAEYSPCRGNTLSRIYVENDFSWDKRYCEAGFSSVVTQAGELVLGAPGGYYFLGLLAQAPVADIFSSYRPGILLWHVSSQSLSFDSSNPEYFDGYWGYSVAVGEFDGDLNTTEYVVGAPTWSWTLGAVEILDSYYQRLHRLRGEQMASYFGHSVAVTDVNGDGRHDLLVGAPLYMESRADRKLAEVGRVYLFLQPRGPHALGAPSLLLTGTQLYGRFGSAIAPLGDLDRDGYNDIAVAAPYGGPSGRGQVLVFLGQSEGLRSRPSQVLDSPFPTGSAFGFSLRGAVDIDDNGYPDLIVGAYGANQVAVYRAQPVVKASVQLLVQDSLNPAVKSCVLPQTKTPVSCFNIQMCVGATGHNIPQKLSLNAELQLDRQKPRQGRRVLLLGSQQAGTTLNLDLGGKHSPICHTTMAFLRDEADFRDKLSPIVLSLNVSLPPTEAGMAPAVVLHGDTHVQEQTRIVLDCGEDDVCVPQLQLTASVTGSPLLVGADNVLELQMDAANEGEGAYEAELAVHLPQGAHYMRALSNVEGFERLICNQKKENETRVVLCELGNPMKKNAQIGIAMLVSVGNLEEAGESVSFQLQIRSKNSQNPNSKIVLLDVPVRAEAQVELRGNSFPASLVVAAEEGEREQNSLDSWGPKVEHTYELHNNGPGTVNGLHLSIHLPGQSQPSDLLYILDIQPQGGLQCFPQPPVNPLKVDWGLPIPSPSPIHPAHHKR
T2 sequence (P08514 891-1039 partner limits assumed): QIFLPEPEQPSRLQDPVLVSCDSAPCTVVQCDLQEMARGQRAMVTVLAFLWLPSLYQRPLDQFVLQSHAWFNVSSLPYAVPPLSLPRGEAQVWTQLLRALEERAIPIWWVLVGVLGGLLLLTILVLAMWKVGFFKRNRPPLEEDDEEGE
T2 sequence (P05106 27-788): as the sequence (P05106 27-788) above

O=C(O)CC1CN(c2ccccc2)c2cc(NC(=O)CCNc3ccccn3)ccc2O1 (stereo not drawn) [Compound 1a, (4-phenyl-6-{[3-(2-pyridinylamino)propanoyl]amino}-3,4-dihydro-2H-1,4-benzoxazin-2-yl)acetic acid]
IC50 [1]: 0.044 ± 0.025 µM | ratio between αIIbβ3 and αvβ3 inhibiting activity [1]: about 1,000 | IC50 [2]: 30 µM

O=C(O)CC1CN(c2ccccc2)c2cc(NC(=O)CCCNc3ccccn3)ccc2O1 (stereo not drawn) [Compound 1b, (4-phenyl-6-{[4-(2-pyridinylamino)butanoyl]amino}-3,4-dihydro-2H-1,4-benzoxazin-2-yl)acetic acid]
IC50 [1]: 0.024 ± 0.009 µM | ratio between αIIbβ3 and αvβ3 inhibiting activity [1]: about 1,000 | IC50 [2]: 27 µM
